Reference: the NIST ThermoML archive (doi:10.1021/je060355j)
Numbers after ± are expanded uncertainties.

Tests used:
[1] = xn = mol fraction of the nth substance listed; conditions: 101.32 kPa, Liquid
[2] = excess molar enthalpy (molar enthalpy of mixing); xn = mol fraction of the nth substance listed; conditions: 291.15 K, 101.32 kPa, Liquid
[3] = refractive index (Na D-line) (dimensionless); conditions: 101.33 kPa, Liquid
[4] = Liquid; for mass density: 101.32 kPa

COC=O [methyl methanoate] + CCCCCC
mass density [kg/m3], [1]
Conditions	291.15 K	298.15 K
x1 = 0.019	663 ± 2	–
x1 = 0.0376	–	659.63 ± 2.1
x1 = 0.0499	666.3 ± 2	–
x1 = 0.0816	–	664.26 ± 2
x1 = 0.0863	670.6 ± 2	–
x1 = 0.1013	672.6 ± 2	–
x1 = 0.1209	675.3 ± 2	–
x1 = 0.1327	–	670.55 ± 2
x1 = 0.1642	–	674.8 ± 2
x1 = 0.2033	687.1 ± 1.9	–
x1 = 0.2352	–	685.32 ± 1.9
x1 = 0.2936	–	695.29 ± 1.9
x1 = 0.2986	702.6 ± 1.9	–
x1 = 0.3828	718.9 ± 1.8	–
x1 = 0.3903	–	714.41 ± 1.8
x1 = 0.4841	742.3 ± 1.7	–
x1 = 0.4987	–	740.05 ± 1.7
x1 = 0.5462	759.1 ± 1.6	–
x1 = 0.5979	–	768.9 ± 1.6
x1 = 0.6061	777.4 ± 1.6	–
x1 = 0.6987	810.1 ± 1.4	–
x1 = 0.7062	–	806.5 ± 1.4
x1 = 0.7433	–	821.74 ± 1.4
x1 = 0.7445	829.1 ± 1.4	–
x1 = 0.7956	851.5 ± 1.3	–
x1 = 0.7972	–	845.31 ± 1.3
x1 = 0.8392	872.6 ± 1.2	–
x1 = 0.8497	–	871.94 ± 1.2
x1 = 0.903	908.4 ± 1.1	–
x1 = 0.905	–	902.05 ± 1.2
x1 = 0.9539	939.9 ± 1.1	–
x1 = 0.9582	–	936.28 ± 1.1
x1 = 1	976.9 ± 0.67	966.54 ± 0.72

[2]
Conditions	excess molar enthalpy [kcal/mol]
x1 = 0.1408	0.253 ± 0.00454
x1 = 0.252	0.389 ± 0.00645
x1 = 0.3379	0.462 ± 0.00765
x1 = 0.4008	0.492 ± 0.00813
x1 = 0.4618	0.504 ± 0.00813
x1 = 0.5094	0.502 ± 0.00813
x1 = 0.5501	0.493 ± 0.00813
x1 = 0.5862	0.481 ± 0.00789
x1 = 0.6157	0.462 ± 0.00765
x1 = 0.6568	0.439 ± 0.00717
x1 = 0.7033	0.41 ± 0.00669
x1 = 0.7517	0.37 ± 0.00621
x1 = 0.7971	0.33 ± 0.0055
x1 = 0.845	0.281 ± 0.00478
x1 = 0.8923	0.219 ± 0.00406
x1 = 0.9292	0.153 ± 0.00335
x1 = 0.9665	0.0896 ± 0.00239

CCOC=O [ethyl methanoate]
Conditions	mass density, 291.15 K [kg/m3]	mass density, 298.15 K [kg/m3]	mass density, 308.15 K [kg/m3]	mass density, 318.15 K [kg/m3]	refractive index, 291.15 K	refractive index, 298.15 K	refractive index, 318.15 K	vapor or sublimation pressure, 327.33 K [kPa]
[3]	–	–	–	–	1.3614 ± 0.0011	1.358 ± 0.0011	1.3474 ± 0.0011	–
[4]	924.7 ± 2.3	915.16 ± 2.3	902.07 ± 2.3	888.42 ± 2.4	–	–	–	101.32 ± 1

CCCCCC [hexane] + COC=O
[1], x2 = 0
Conditions	mass density [kg/m3]
291.15 K	661.2 ± 2
298.15 K	654.89 ± 2.1

CCCCCC [hexane]
Conditions	mass density, 291.15 K [kg/m3]	mass density, 298.15 K [kg/m3]	mass density, 308.15 K [kg/m3]	mass density, 318.15 K [kg/m3]	refractive index, 291.15 K	refractive index, 298.15 K	refractive index, 318.15 K	vapor or sublimation pressure, 341.76 K [kPa]
[3]	–	–	–	–	1.3765 ± 0.001	1.372 ± 0.001	1.3618 ± 0.001	–
[4]	661.2 ± 2	654.89 ± 2.1	646.07 ± 2.1	636.43 ± 2.2	–	–	–	101.32 ± 1

CCCCCC [hexane] + CCOC=O
[1], x2 = 0
Conditions	mass density [kg/m3]
291.15 K	661.2 ± 2
298.15 K	654.89 ± 2.1
308.15 K	646.07 ± 2.1
318.15 K	636.43 ± 2.2

CCCCCC [hexane] + CCCOC=O
[1], x2 = 0
Conditions	mass density [kg/m3]
291.15 K	661.2 ± 2
298.15 K	654.89 ± 2.1
308.15 K	646.07 ± 2.1
318.15 K	636.43 ± 2.2

COC=O [methyl methanoate]
Conditions	mass density, 291.15 K [kg/m3]	mass density, 298.15 K [kg/m3]	refractive index, 291.15 K	refractive index, 298.15 K	vapor or sublimation pressure, 304.7 K [kPa]
[3]	–	–	1.3452 ± 0.001	1.3415 ± 0.001	–
[4]	976.9 ± 0.67	966.54 ± 0.72	–	–	101.32 ± 1

CCCCOC=O [butyl methanoate]
Conditions	mass density, 291.15 K [kg/m3]	mass density, 298.15 K [kg/m3]	mass density, 308.15 K [kg/m3]	mass density, 318.15 K [kg/m3]	refractive index, 291.15 K	refractive index, 298.15 K	refractive index, 318.15 K	vapor or sublimation pressure, 380.13 K [kPa]
[3]	–	–	–	–	1.3904 ± 0.0011	1.3872 ± 0.0011	1.3776 ± 0.0011	–
[4]	896 ± 2.4	888.66 ± 2.4	878.24 ± 2.4	867.21 ± 2.4	–	–	–	101.32 ± 1.1

CCCOC=O [propyl methanoate]
Conditions	mass density, 291.15 K [kg/m3]	mass density, 298.15 K [kg/m3]	mass density, 308.15 K [kg/m3]	mass density, 318.15 K [kg/m3]	refractive index, 291.15 K	refractive index, 298.15 K	refractive index, 318.15 K	vapor or sublimation pressure, 353.92 K [kPa]
[3]	–	–	–	–	1.3778 ± 0.0011	1.375 ± 0.0011	1.365 ± 0.0011	–
[4]	907.8 ± 2.3	899.08 ± 2.3	888.36 ± 2.4	875.32 ± 2.4	–	–	–	101.32 ± 1

CCCCCC [hexane] + CCCCOC=O
[1], x2 = 0
Conditions	mass density [kg/m3]
291.15 K	661.2 ± 2
298.15 K	654.89 ± 2.1
308.15 K	646.07 ± 2.1
318.15 K	636.43 ± 2.2
